Test results: ChEMBL document CHEMBL5126517, “Structure-Activity Relationship in the Leucettine Family of Kinase Inhibitors” (J Med Chem, 2022)

Assays:
HT-22 = assay: Neuroprotective activity against glutamate-induced cell death in mouse HT-22 cells treated for 24 hrs by MTS assay; format: functional, cell-based; details: HT-22, 24 h
[1] = target: Dual specificity protein kinase CLK1 (Mus musculus, UniProt P22518); assay: Inhibition of GST-fused mouse recombinant CLK1 expressed in Escherichia coli using GRSRSRSRSRSR peptide as substrate incubated for 30 mins in presence of ATP by scintillation counting method
[2] = target: T1, Dual specificity tyrosine-phosphorylation-regulated kinase 2 (Homo sapiens, UniProt Q92630); assay: Inhibition of GST-fused human recombinant DYRK2 expressed in Escherichia coli using GRSRSRSRSRSR peptide as substrate incubated for 30 mins in presence of ATP by scintillation counting method
T1 sequence (Q92630 whole entry): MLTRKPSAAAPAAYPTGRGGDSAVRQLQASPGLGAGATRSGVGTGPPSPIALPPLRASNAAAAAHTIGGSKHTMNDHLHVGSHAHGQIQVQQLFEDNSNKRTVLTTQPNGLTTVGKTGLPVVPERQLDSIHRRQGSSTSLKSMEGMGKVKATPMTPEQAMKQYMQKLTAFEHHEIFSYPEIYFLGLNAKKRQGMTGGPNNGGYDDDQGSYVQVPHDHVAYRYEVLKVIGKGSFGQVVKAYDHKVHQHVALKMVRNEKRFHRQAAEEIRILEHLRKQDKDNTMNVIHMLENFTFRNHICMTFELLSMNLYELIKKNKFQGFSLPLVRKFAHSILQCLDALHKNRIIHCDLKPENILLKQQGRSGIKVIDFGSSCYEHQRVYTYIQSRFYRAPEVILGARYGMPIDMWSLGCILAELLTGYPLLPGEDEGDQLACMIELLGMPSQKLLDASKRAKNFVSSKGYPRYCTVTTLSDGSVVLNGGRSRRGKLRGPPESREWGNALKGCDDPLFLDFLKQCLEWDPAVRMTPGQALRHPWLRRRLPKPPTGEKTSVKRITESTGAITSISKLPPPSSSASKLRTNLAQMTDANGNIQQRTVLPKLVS

Casein kinase 2 = Casein kinase 2 (Homo sapiens, UniProt P67870+P68400+P19784+Q8NEV1); assay: Inhibition of human recombinant CK2 using RRRDDDSDDD peptide as substrate incubated for 30 mins in presence of ATP by scintillation counting method; format: protein assay
[3] = target: T2, Dual specificity tyrosine-phosphorylation-regulated kinase 3 (Homo sapiens, UniProt O43781); assay: Inhibition of GST-fused human recombinant DYRK3 expressed in Escherichia coli using GRSRSRSRSRSR peptide as substrate incubated for 30 mins in presence of ATP by scintillation counting method
T2 sequence (O43781 whole entry): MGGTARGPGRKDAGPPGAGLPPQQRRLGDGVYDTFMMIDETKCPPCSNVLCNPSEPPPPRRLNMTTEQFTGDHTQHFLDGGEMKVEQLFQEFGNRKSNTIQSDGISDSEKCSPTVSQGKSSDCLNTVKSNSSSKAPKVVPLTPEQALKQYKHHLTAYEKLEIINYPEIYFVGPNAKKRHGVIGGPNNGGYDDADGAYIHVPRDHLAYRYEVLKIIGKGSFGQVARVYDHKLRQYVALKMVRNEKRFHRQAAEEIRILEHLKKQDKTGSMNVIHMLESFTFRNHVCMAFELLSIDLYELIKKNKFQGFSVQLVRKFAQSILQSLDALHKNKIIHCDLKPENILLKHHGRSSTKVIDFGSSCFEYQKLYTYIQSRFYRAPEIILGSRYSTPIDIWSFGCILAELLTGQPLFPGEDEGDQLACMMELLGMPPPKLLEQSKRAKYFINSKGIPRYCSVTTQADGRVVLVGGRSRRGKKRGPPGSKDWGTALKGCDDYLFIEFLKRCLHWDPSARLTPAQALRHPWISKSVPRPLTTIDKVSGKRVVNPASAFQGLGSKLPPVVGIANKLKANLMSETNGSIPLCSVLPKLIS

[4] = target: Dual specificity protein kinase CLK4 (Mus musculus, UniProt O35493); assay: Inhibition of GST-fused mouse recombinant CLK4 expressed in Escherichia coli using GRSRSRSRSRSR peptide as substrate incubated for 30 mins in presence of ATP by scintillation counting method
[5] = target: Dual specificity tyrosine-phosphorylation-regulated kinase 1B (Homo sapiens, UniProt Q9Y463)
Cannabinoid receptor 1 = Cannabinoid receptor 1 (Homo sapiens, UniProt P21554); assay: Antagonist activity at CP-55940-activated CB1 receptor (unknown origin) at 10 uM by beta-arrestin assay relative to control; format: functional; set-up: scale not given: the % may be the effect or the level left
[6] = target: Glycogen synthase kinase-3 (Sus scrofa, UniProt B2LUN4+I6LNT8); assay: Inhibition of porcine brain GSK-3alpha/beta using YRRAAVPPSPSLSRHSSPHQpSEDEEE as substrate incubated for 30 mins in presence of ATP by scintillation counting method; format: tissue-based
U2OS = assay: Induction of PI3K/mTor-dependent autophagy in human U2OS cells assessed as number of LC3 foci per cell at 10 uM measured after 4 hrs; format: cell-based; details: filed as activator
[7] = target: Dual specificity protein kinase CLK2 (Mus musculus, UniProt O35491); assay: Inhibition of mouse recombinant GST-fused CLK2 expressed in Escherichia coli using GRSRSRSRSRSR peptide as substrate incubated for 30 mins in presence of ATP by scintillation counting method
[8] = target: Serine/threonine-protein kinase pim-1 (Homo sapiens, UniProt P11309); assay: Inhibition of human recombinant Pim1 expressed in Escherichia coli using histone H1 as substrate incubated for 30 mins in presence of ATP by scintillation counting method
[9] = Neurotoxicity against mouse HT-22 cells assessed as cell survival at 20 uM treated for 24 hrs by MTS assay; format: toxicity, cell-based; details: ht-22, 24 h
[10] = target: Dual specificity tyrosine-phosphorylation-regulated kinase 1A (Homo sapiens, UniProt Q13627); assay: Inhibition of GST-fused human recombinant DYRK1A expressed in Escherichia coli using GRSRSRSRSRSR peptide as substrate incubated for 30 mins in presence of ATP by scintillation counting method
[11] = target: Dual specificity protein kinase CLK3 (Mus musculus, UniProt O35492); assay: Inhibition of GST-fused mouse recombinant CLK3 expressed in Escherichia coli using GRSRSRSRSRSR peptide as substrate incubated for 30 mins in presence of ATP by scintillation counting method
Sequence of Dual specificity protein kinase CLK3 (O35492 whole entry, the tested form may be a part): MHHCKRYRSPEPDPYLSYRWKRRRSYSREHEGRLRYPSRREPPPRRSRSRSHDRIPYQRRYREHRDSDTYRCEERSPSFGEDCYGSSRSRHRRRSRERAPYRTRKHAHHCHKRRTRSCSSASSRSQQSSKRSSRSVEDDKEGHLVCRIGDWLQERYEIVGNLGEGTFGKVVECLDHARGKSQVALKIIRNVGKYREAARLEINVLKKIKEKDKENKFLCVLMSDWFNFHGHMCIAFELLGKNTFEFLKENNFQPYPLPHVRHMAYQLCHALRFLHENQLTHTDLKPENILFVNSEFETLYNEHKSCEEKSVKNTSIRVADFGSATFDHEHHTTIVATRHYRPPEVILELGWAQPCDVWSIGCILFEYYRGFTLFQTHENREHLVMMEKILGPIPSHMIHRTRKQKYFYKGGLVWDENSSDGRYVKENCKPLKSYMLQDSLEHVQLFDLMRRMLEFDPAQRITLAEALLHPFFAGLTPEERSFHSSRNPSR

Sequence of Dual specificity tyrosine-phosphorylation-regulated kinase 1B (Q9Y463 whole entry): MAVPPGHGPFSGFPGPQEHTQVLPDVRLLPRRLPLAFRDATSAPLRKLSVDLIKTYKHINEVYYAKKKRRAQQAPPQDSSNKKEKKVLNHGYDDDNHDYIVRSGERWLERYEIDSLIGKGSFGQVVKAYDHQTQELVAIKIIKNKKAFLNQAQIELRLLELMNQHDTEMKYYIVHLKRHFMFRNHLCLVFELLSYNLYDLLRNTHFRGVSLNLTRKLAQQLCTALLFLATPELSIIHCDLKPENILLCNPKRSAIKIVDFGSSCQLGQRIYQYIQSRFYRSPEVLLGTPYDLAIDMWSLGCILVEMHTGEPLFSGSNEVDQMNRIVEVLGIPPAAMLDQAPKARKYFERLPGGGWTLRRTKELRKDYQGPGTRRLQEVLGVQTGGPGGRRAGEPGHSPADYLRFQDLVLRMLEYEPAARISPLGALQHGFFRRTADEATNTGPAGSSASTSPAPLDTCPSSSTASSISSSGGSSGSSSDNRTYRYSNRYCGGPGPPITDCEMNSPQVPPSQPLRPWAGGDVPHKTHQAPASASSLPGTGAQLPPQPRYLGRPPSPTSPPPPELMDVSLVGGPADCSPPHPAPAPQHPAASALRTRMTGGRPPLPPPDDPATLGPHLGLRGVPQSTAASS
Sequence of Cannabinoid receptor 1 (P21554 whole entry): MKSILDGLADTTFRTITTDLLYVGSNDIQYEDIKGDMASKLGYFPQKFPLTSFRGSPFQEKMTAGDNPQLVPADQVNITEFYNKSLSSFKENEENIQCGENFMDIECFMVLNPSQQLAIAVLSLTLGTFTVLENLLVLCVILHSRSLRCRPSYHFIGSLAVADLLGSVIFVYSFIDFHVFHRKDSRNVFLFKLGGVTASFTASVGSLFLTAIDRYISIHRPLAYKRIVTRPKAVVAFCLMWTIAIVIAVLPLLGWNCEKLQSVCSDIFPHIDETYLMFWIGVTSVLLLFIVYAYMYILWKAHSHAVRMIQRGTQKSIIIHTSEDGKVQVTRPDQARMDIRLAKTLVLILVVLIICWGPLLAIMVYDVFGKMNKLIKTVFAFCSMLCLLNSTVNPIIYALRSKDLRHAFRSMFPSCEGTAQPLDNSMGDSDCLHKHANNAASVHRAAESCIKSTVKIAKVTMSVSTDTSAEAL
Sequence of Dual specificity protein kinase CLK2 (O35491 whole entry, the tested form may be a part): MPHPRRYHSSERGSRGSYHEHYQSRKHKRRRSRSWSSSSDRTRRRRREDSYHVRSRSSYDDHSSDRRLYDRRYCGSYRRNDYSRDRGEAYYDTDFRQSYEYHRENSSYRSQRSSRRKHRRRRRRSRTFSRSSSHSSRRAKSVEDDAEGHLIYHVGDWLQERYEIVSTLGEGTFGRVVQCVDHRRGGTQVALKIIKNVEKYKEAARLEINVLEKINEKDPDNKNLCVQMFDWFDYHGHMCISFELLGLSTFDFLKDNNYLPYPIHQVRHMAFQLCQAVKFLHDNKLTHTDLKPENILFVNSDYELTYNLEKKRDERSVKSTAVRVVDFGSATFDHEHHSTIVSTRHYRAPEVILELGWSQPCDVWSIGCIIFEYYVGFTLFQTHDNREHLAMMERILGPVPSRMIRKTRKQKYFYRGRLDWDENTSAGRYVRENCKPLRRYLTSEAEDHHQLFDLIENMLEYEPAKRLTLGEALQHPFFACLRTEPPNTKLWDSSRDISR
Sequence of Serine/threonine-protein kinase pim-1 (P11309 whole entry): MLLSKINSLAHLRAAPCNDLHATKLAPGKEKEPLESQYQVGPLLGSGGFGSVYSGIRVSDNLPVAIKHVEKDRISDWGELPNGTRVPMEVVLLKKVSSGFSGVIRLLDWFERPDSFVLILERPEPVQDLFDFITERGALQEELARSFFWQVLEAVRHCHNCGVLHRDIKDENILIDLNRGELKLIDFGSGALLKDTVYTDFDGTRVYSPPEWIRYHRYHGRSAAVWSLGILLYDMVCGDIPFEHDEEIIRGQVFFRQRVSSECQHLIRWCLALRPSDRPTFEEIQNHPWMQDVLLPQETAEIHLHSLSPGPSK
Sequence of Dual specificity protein kinase CLK4 (O35493 whole entry, the tested form may be a part): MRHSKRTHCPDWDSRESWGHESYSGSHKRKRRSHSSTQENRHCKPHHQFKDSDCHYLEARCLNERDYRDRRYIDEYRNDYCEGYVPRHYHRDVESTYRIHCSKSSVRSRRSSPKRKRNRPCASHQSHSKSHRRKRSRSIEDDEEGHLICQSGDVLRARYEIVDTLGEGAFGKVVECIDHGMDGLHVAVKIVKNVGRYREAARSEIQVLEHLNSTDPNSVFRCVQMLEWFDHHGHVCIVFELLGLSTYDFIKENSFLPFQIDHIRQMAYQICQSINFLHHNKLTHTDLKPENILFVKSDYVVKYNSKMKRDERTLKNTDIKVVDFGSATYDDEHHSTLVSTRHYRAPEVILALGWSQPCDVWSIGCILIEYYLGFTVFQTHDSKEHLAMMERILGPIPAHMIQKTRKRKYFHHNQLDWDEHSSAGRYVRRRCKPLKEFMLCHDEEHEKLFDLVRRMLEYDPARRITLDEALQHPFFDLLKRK
Sequence of Dual specificity protein kinase CLK1 (P22518 whole entry, the tested form may be a part): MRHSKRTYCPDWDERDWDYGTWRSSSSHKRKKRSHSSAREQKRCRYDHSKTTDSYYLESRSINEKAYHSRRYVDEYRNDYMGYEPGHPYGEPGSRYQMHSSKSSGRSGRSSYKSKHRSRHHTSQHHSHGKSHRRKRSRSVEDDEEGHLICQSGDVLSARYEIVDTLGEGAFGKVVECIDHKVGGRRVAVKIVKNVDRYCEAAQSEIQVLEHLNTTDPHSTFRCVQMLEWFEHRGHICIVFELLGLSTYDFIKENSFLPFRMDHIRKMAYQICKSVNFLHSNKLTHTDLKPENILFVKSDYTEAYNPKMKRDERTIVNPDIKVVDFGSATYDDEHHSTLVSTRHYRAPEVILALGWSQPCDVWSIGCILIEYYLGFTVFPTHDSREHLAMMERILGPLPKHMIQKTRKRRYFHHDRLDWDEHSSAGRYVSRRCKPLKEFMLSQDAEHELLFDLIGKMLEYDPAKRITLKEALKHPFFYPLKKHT

SMILES	EC50 (HT-22)	IC50 [1]	IC50 [2]	IC50 (Casein kinase 2)	IC50 [3]	IC50 [4]	IC50 [5]	Activity (Cannabinoid receptor 1)	IC50 [6]	Activity (U2OS)	IC50 [7]	IC50 [8]	Activity [9]	IC50 [10]	IC50 [11]	Activity (Cannabinoid receptor 1; filed as antagonist)
O=C1NC(Nc2ccc(O)c(F)c2)=N/C1=C\c1ccc2c(c1)OCO2	13 µM	0.016 µM	0.011 µM	0.32 µM	0.17 µM	0.019 µM	0.023 µM	-5.6%	0.55 µM	18.2	0.12 µM	0.61 µM	Non-Toxic	0.012 µM	0.4 µM	–
O=C1NC(Nc2ccccc2)=N/C1=C\c1ccc2c(c1)CCO2	7 µM	0.022 µM	0.041 µM	1.1 µM	0.24 µM	0.019 µM	0.088 µM	–	> 10 µM	10.2	0.12 µM	3.2 µM	Non-Toxic	0.032 µM	1.2 µM	96.4%
CCCCCCc1ccc(NC2=N/C(=C\c3ccc4c(c3)OCO4)C(=O)N2)cc1	1.19 µM	> 10 µM	9.5 µM	–	–	4.1 µM	> 10 µM	–	–	6.5	–	–	Non-Toxic	> 10 µM	–	75%
Cc1ccc(C)c(NC2=N/C(=C\c3ccc4c(c3)OCO4)C(=O)N2)c1	7 µM	0.05 µM	0.022 µM	1.6 µM	0.8 µM	0.023 µM	0.092 µM	10.8%	10 µM	26	0.18 µM	7.7 µM	Non-Toxic	0.024 µM	3.5 µM	–
Cc1ccc(NC2=N/C(=C\c3ccc4c(c3)OCO4)C(=O)N2)c(C)c1	8 µM	0.24 µM	0.075 µM	2.4 µM	0.95 µM	0.14 µM	0.16 µM	–	1.4 µM	5.6	1.1 µM	2.5 µM	Non-Toxic	0.072 µM	> 10 µM	65.6%
O=C1NC(Nc2ccc(N3CCNCC3)cc2)=N/C1=C\c1ccc2c(c1)OC=CO2	1.25 µM	1.1 µM	0.35 µM	3 µM	1.1 µM	0.64 µM	1.4 µM	-20%	4.6 µM	7.3	2.3 µM	5.4 µM	Non-Toxic	0.53 µM	> 10 µM	–
O=C1NC(Nc2ccccc2)=N/C1=C\c1ccccc1	7.2 µM	–	–	–	–	–	–	–	–	7.7	–	–	Non-Toxic	–	–	44.6%
O=C1NC(Nc2ccc(Oc3ccccc3)cc2)=N/C1=C\c1ccc2c(c1)OCO2	2.4 µM	1.8 µM	1.1 µM	–	–	0.76 µM	4 µM	–	> 10 µM	4.6	> 10 µM	–	Non-Toxic	0.92 µM	–	73.5%
O=C1NC(Nc2cccc(F)c2)=N/C1=C\c1ccc2c(c1)OCO2	5 µM	0.052 µM	0.023 µM	0.8 µM	0.35 µM	0.03 µM	0.035 µM	–	0.56 µM	7.5	0.13 µM	1.2 µM	Non-Toxic	0.019 µM	0.56 µM	83.4%
O=C1NC(Nc2ccccc2)=N/C1=C\c1ccc(O)c(O)c1	3.3 µM	0.21 µM	0.27 µM	1.5 µM	1.2 µM	0.13 µM	0.32 µM	-22.3%	1.2 µM	10.1	1.5 µM	0.84 µM	Non-Toxic	0.15 µM	2.3 µM	–
[2H]C1([2H])Oc2ccc(/C=C3\N=C(Nc4ccccc4)NC3=O)cc2O1	4.9 µM	0.04 µM	–	1.6 µM	–	–	–	–	0.75 µM	–	0.17 µM	–	Non-Toxic	–	0.5 µM	–
COc1cc(/C=C2\N=C(Nc3ccc(N4CCNCC4)cc3)NC2=O)ccc1O	7 µM	1.2 µM	2.1 µM	–	1.5 µM	1.2 µM	2.2 µM	-26.8%	6.5 µM	6.3	3.5 µM	> 10 µM	Non-Toxic	1.3 µM	> 10 µM	–
O=C1NC(Nc2ccc(N3CCNCC3)cc2)=N/C1=C\c1ccc2c(c1)OCO2	0.91 µM	0.42 µM	0.41 µM	2.3 µM	1.2 µM	0.52 µM	0.95 µM	-47.5%	2.4 µM	7.3	1.8 µM	6.1 µM	Non-Toxic	0.35 µM	9 µM	–
O=C1NC(Nc2ccccc2)=N/C1=C\c1ccc(F)cc1	2.85 µM	3.2 µM	–	3.2 µM	–	2.8 µM	> 10 µM	–	–	20.2	> 10 µM	> 10 µM	Non-Toxic	9.5 µM	> 10 µM	78%
COc1ccc(/C=C2\N=C(Nc3ccccc3)NC2=O)cc1O	5.57 µM	4.3 µM	2.1 µM	> 10 µM	2.4 µM	4 µM	2.8 µM	–	–	6.5	≥ 10 µM	1.9 µM	Non-Toxic	2 µM	–	46.8%
